What was measured:
IKZF3 (Aiolos) = biological target: T1, IKZF3 (Aiolos) (Homo sapiens, UniProt Q9UKT9); experiment: IKZF3 reporter degradation assay (HEK 293T IKZF3-mNeonGreen reporter cell line); assay type: cell-based; conditions: HEK 293T IKZF3-mNeonGreen reporter, 24 hours incubation
T1 construct: Leu-Asp junction (codons ctcgac before the linker); mScarlet (behind P2A) (C, cleaved yes); expressed in transfected cells
In short: (§1)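 DC50 values come from four-parameter logistic regression of percent mNeonGreen-positive cells, imaged with mScarlet-based segmentation after 24 h compound exposure at 37° C. Quadruplicate wells had at most 0.5% DMSO. Reporters are C-terminal IKZF-mNeonGreen fusions with P2A-mScarlet, stably expressed in clonal HEK 293T lines.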

IKZF1 (Ikaros) = biological target: T2, IKZF1 (Ikaros) (Homo sapiens, UniProt Q13422); experiment: IKZF1 reporter degradation assay (HEK 293T IKZF1-mNeonGreen reporter cell line); assay type: cell-based; conditions: HEK 293T IKZF1-mNeonGreen reporter, 24 hours incubation
T2 construct: mScarlet (behind P2A) (C, cleaved yes); expressed in transfected cells
T2 sequence (Q96SW2 whole entry partner): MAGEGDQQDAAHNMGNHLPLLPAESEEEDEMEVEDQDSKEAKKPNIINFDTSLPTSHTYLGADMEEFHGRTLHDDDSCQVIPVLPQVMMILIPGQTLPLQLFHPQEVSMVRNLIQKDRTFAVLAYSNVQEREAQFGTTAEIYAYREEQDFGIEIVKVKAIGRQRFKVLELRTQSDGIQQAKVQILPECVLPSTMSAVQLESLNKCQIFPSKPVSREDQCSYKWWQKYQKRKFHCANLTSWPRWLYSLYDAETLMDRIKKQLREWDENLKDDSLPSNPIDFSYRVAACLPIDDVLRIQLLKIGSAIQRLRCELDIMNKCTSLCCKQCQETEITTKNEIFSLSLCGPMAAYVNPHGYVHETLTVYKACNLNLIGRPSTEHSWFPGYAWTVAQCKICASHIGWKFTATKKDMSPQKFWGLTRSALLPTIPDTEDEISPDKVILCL
T2 sequence (Q16531 whole entry partner): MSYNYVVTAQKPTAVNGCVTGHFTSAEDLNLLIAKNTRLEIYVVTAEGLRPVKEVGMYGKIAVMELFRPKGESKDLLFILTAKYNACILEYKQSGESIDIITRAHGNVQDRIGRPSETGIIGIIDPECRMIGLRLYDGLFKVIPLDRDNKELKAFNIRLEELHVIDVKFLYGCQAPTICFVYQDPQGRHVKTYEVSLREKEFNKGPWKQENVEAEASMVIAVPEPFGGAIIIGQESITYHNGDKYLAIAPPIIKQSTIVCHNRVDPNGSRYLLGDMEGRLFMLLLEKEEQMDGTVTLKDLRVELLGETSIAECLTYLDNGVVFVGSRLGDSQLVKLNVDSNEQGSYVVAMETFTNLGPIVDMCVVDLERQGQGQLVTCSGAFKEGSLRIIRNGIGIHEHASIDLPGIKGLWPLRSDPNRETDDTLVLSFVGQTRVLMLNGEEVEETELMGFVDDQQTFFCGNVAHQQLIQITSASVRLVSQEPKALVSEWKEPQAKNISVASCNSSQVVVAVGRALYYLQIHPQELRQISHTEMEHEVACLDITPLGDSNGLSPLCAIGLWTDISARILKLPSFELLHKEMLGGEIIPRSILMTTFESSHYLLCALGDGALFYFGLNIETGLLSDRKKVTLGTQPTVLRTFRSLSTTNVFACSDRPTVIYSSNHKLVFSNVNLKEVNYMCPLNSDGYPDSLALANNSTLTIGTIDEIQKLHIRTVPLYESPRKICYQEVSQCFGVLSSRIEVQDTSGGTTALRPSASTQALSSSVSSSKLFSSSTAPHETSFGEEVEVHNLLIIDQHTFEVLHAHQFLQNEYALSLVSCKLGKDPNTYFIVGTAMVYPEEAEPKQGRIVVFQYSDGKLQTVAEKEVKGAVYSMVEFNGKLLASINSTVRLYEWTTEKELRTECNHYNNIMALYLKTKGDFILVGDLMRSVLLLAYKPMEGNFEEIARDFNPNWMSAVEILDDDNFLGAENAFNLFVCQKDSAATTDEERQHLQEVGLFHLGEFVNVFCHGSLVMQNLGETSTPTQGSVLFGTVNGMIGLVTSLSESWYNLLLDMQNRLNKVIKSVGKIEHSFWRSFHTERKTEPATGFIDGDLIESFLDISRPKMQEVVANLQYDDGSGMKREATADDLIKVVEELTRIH
T2 sequence (Q13422 whole entry): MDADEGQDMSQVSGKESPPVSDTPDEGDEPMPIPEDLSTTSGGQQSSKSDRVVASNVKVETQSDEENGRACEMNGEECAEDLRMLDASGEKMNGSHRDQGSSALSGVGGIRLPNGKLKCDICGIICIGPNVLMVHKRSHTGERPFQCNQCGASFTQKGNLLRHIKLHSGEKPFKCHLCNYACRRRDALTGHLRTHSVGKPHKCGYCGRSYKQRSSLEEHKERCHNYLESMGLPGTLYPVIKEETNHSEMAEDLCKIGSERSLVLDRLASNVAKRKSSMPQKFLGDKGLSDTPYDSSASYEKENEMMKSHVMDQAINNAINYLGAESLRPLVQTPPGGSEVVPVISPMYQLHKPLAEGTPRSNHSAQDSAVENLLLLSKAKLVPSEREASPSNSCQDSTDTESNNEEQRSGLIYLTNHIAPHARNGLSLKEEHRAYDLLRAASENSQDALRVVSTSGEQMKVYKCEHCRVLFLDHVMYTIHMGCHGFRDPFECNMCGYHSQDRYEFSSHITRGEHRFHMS
In short: as §1

IKZF2 (Helios) [1] = biological target: T3, IKZF2 (Helios) (Homo sapiens, UniProt Q9UKS7); experiment: IKZF2 reporter degradation assay (HEK 293T IKZF2-mNeonGreen reporter cell line); assay type: cell-based; conditions: HEK 293T IKZF2-mNeonGreen reporter, 24 hours incubation
T3 construct: Leu-Asp junction (codons ctcgac before the linker); mScarlet (behind P2A) (C, cleaved yes); expressed in transfected cells
T3 sequence (Q9UKS7 whole entry): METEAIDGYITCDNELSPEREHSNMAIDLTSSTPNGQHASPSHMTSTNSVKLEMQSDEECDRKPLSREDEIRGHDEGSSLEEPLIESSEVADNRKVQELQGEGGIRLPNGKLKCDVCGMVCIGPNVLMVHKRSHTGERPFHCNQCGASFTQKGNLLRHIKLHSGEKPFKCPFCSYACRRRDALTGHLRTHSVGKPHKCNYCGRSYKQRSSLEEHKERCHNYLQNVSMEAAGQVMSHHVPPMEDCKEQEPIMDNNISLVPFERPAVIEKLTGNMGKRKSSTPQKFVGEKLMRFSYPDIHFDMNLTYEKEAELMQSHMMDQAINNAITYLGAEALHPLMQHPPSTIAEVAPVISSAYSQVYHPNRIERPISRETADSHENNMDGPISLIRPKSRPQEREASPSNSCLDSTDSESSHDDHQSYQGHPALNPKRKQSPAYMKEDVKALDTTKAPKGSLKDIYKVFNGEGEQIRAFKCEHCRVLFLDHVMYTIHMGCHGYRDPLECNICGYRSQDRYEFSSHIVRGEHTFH
T3 sequence (Q96SW2 whole entry, further chain): as the sequence (Q96SW2 whole entry partner) above
T3 sequence (Q16531 whole entry partner): as the sequence (Q16531 whole entry partner) above
In short: as §1

IKZF2 (Helios) [2] = biological target: T4, IKZF2 (Helios) (Homo sapiens, UniProt Q96SW2+Q9UKS7); experiment: as above; assay type: cell-based; conditions: HEK-293T, 24 h, @ 1 μM, HEK 293T IKZF2-mNeonGreen reporter, 24 hours incubation
T4 construct: Leu-Asp junction (codons ctcgac before the linker); mScarlet (behind P2A) (C, cleaved yes); expressed in transfected cells
T4 sequence (Q9UKS7 whole entry): as the sequence (Q9UKS7 whole entry) above
T4 sequence (Q96SW2 whole entry): as the sequence (Q96SW2 whole entry partner) above
T4 sequence (Q16531 whole entry partner): as the sequence (Q16531 whole entry partner) above
In short: as §1

[3] = biological target: T5, human E3 ligase component cereblon (CRBN) (Homo sapiens, UniProt Q96SW2); experiment: Cereblon (CRBN) target engagement, NanoBRET TE Intracellular E3 Ligase Assay in transfected HEK-293T cells; conditions: read-out: CRBN Binding EC50
T5 construct: host or cells: HEK293T
T5 sequence (Q96SW2 whole entry): as the sequence (Q96SW2 whole entry partner) above
T5 sequence (Q16531 whole entry partner): as the sequence (Q16531 whole entry partner) above
In short: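 Tracer displacement was read as the 610/450 nm BRET signal after 2 h at 37° C with an 11-point dilution series, typically 10 μM to 100 pM. Live HEK-293T cells expressed NanoLuc fused N-terminal to human CRBN together with DDB1. IC50 was fitted with a four-parameter logistic model.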

T1 sequence (Q96SW2 whole entry partner): as the sequence (Q96SW2 whole entry partner) above
T1 sequence (Q16531 whole entry partner): as the sequence (Q16531 whole entry partner) above
T1 sequence (Q9UKT9 whole entry): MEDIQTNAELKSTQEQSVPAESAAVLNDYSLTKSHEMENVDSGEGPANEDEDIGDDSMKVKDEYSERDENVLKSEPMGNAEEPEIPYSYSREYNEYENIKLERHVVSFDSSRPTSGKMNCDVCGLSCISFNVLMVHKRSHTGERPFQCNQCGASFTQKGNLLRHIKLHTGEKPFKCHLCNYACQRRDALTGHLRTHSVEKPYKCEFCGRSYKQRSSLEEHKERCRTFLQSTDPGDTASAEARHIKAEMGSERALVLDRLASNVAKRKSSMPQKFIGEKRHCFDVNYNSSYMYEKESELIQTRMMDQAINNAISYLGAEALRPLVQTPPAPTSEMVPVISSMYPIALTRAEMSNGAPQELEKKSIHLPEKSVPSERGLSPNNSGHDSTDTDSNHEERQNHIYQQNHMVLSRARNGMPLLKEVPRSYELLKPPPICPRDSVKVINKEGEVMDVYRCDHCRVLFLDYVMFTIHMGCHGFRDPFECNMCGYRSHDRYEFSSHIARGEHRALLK

Compound | DC50 (IKZF3 (Aiolos)) [µM] | DC50 (IKZF1 (Ikaros)) [µM] | DC50 (IKZF2 (Helios) [1]) [µM] | inhibition at 1 µM (IKZF2 (Helios) [2]) [%] | EC50 [3] [µM] | inhibition at 1 µM (IKZF3 (Aiolos); HEK-293T, 24 h, @ 1 μM) [%]
COc1ccc(C2CN([C@H]3CCCC3Oc3ccc4c(c3)CN(C3CCC(=O)NC3=O)C4=O)C2)cn1 (mixture of isomers) [Compound 201-B, Rac-3-(5-(((cis)-2-(3-(6-methoxypyridin-3-yl)azetidin-1-yl)cyclopentyl)oxy)-1-oxoisoindolin-2-yl)piperidine-2,6-dione] | > 30 | > 30 | 0.078 | 62.7 | 0.036 | 
O=C1CCC(N2Cc3cc(O[C@H]4CCCC[C@@H]4N4CC(c5ccc(C(F)(F)F)cn5)C4)ccc3C2=O)C(=O)N1 (mixture of isomers) [Compound 192-B, Rac-3-(1-oxo-5-(((trans)-2-(3-(5-(trifluoromethyl)pyridin-2-yl)azetidin-1-yl)cyclohexyl)oxy)isoindolin-2-yl)piperidine-2,6-dione] | > 30 | > 30 | 0.123 | 25.6 | 0.007 | 
O=C1CCC(N2Cc3cc(O[C@@H]4CCCC[C@@H]4N4CC(c5ccc(C(F)(F)F)cn5)C4)ccc3C2=O)C(=O)N1 (mixture of isomers) [Compound 182-B, Rac-3-(1-oxo-5-(((cis)-2-(3-(5-(trifluoromethyl)pyridin-2-yl)azetidin-1-yl)cyclohexyl)oxy)isoindolin-2-yl)piperidine-2,6-dione] | > 30 | > 30 | 0.005 | 78.3 | 0.009 | 
O=C1CCC(N2Cc3cc(O[C@@H]4CCCC[C@@H]4N4CC(c5ccc(C(F)(F)F)nc5)C4)ccc3C2=O)C(=O)N1 (mixture of isomers) [Compound 183-B, Rac-3-(1-oxo-5-(((cis)-2-(3-(6-(trifluoromethyl)pyridin-3-yl)azetidin-1-yl)cyclohexyl)oxy)isoindolin-2-yl)piperidine-2,6-dione] | > 30 | > 30 | 0.01 | 81.3 | 0.015 | 
Cc1cnc(C2CN([C@H]3CCCC[C@@H]3Oc3ccc4c(c3)CN(C3CCC(=O)NC3=O)C4=O)C2)nc1 (mixture of isomers) [Compound 189-B, Rac-3-(5-(((trans)-2-(3-(5-methylpyrimidin-2-yl)azetidin-1-yl)cyclohexyl)oxy)-1-oxoisoindolin-2-yl)piperidine-2,6-dione] | > 30 | > 30 | 0.123 | 21.2 | 0.013 | 
O=C1CCC(N2Cc3cc(OC4CCCCC4N4CC(c5ccc6cccnc6c5)C4)ccc3C2=O)C(=O)N1 (centres unmarked) [Compound 193-B, 3-(1-oxo-5-((2-(3-(quinolin-7-yl)azetidin-1-yl)cyclohexyl)oxy)isoindolin-2-yl)piperidine-2,6-dione] | > 30 | > 30 | 0.006 | 81.9 | 0.006 | 
O=C1CCC(N2Cc3cc(OC4CCC[C@@H]4N4CC(c5ccccn5)C4)ccc3C2=O)C(=O)N1 (mixture of isomers) [Compound 209-B, Rac-3-(1-oxo-5-(((cis)-2-(3-(pyridin-2-yl)azetidin-1-yl)cyclopentyl)oxy)isoindolin-2-yl)piperidine-2,6-dione] | > 30 | > 30 | 0.23 | 38.9 | 0.058 | 
N#Cc1cc(C2CN([C@@H]3CCCC[C@@H]3Oc3ccc4c(c3)CN(C3CCC(=O)NC3=O)C4=O)C2)ccn1 (mixture of isomers) [Compound 179-B, Rac-4-(1-((cis)-2-((2-(2,6-dioxopiperidin-3-yl)-1-oxoisoindolin-5-yl)oxy)cyclohexyl)azetidin-3-yl)picolinonitrile] | > 30 | > 30 | 0.046 | 68.6 | 0.039 | 
Cc1ccnc(C2CN([C@H]3CCCC[C@@H]3Oc3ccc4c(c3)CN(C3CCC(=O)NC3=O)C4=O)C2)n1 (mixture of isomers) [Compound 188-B, Rac-3-(5-(((trans)-2-(3-(4-methylpyrimidin-2-yl)azetidin-1-yl)cyclohexyl)oxy)-1-oxoisoindolin-2-yl)piperidine-2,6-dione] | > 30 | > 30 | 0.24 | 42 | 0.044 | 
O=C1CCC(N2Cc3cc(OC4CCC[C@@H]4N4CC(c5cccnc5)C4)ccc3C2=O)C(=O)N1 (mixture of isomers) [Compound 207-B, Rac-3-(1-oxo-5-(((cis)-2-(3-(pyridin-3-yl)azetidin-1-yl)cyclopentyl)oxy)isoindolin-2-yl)piperidine-2,6-dione] | > 30 | > 30 | 1.47 | 24.8 | 0.104 | 
O=C1CCC(N2Cc3cc(OC4CCCC4N4CC(c5cnc6ccccc6n5)C4)ccc3C2=O)C(=O)N1 (centres unmarked) [Compound 203-B, 3-(1-oxo-5-((2-(3-(quinoxalin-2-yl)azetidin-1-yl)cyclopentyl)oxy)isoindolin-2-yl)piperidine-2,6-dione] | > 30 | > 30 | 0.13 | 25.1 | 0.02 | 
O=C1CCC(N2Cc3cc(O[C@@H]4CCC[C@@H]4N4CC(c5ccnc6ccccc56)C4)ccc3C2=O)C(=O)N1 (stereo partly drawn) [Compound 194-B, 3-(1-oxo-5-(((1R,2S)-2-(3-(quinolin-4-yl)azetidin-1-yl)cyclopentyl)oxy)isoindolin-2-yl)piperidine-2,6-dione] | 0.283 | > 30 | 0.007 | 79.8 | 0.017 | 26.6
O=C1CCC(N2Cc3cc(OC4CCC[C@@H]4N4CC(c5ccncc5)C4)ccc3C2=O)C(=O)N1 (mixture of isomers) [Compound 205-B, Rac-3-(1-oxo-5-(((cis)-2-(3-(pyridin-4-yl)azetidin-1-yl)cyclopentyl)oxy)isoindolin-2-yl)piperidine-2,6-dione] | > 30 | > 30 | 0.219 | 40.6 | 0.046 | 
Cc1cnc(C2CN([C@H]3CCCC[C@H]3Oc3ccc4c(c3)CN(C3CCC(=O)NC3=O)C4=O)C2)nc1 (mixture of isomers) [Compound 184-B, Rac-3-(5-(((cis)-2-(3-(5-methylpyrimidin-2-yl)azetidin-1-yl)cyclohexyl)oxy)-1-oxoisoindolin-2-yl)piperidine-2,6-dione] | > 30 | > 30 | 0.021 | 79.6 | 0.017 | 
O=C1CCC(N2Cc3cc(OC4CCCCC4N4CC(c5cncnc5)C4)ccc3C2=O)C(=O)N1 (centres unmarked) [Compound 212-B, 3-(1-oxo-5-((2-(3-(pyrimidin-5-yl)azetidin-1-yl)cyclohexyl)oxy)isoindolin-2-yl)piperidine-2,6-dione] | > 30 | > 30 | 0.425 | 20.3 | 0.057 | 
Cc1ccnc(C2CN([C@H]3CCCC[C@H]3Oc3ccc4c(c3)CN(C3CCC(=O)NC3=O)C4=O)C2)n1 (mixture of isomers) [Compound 185-B, Rac-3-(5-(((cis)-2-(3-(4-methylpyrimidin-2-yl)azetidin-1-yl)cyclohexyl)oxy)-1-oxoisoindolin-2-yl)piperidine-2,6-dione] | > 30 | > 30 | 0.021 | 80.3 | 0.03 | 
O=C1CCC(N2Cc3cc(O[C@H]4CCCC[C@@H]4N4CC(c5ncc(C(F)(F)F)cn5)C4)ccc3C2=O)C(=O)N1 (mixture of isomers) [Compound 187-B, Rac-3-(1-oxo-5-(((trans)-2-(3-(5-(trifluoromethyl)pyrimidin-2-yl)azetidin-1-yl)cyclohexyl)oxy)isoindolin-2-yl)piperidine-2,6-dione] | > 30 | > 30 | 0.085 | 27.4 | 0.006 | 
O=C1CCC(N2Cc3cc(O[C@@H]4CCCC[C@H]4N4CC(c5ccc(Cl)cn5)C4)ccc3C2=O)C(=O)N1 (mixture of isomers) [Compound 163-B, Rac-3-(5-(((trans)-2-(3-(5-chloropyridin-2-yl)azetidin-1-yl)cyclohexyl)oxy)-1-oxoisoindolin-2-yl)piperidine-2,6-dione] | > 30 | > 30 | 0.011 | 71.5 | 0.011 | 
O=C1CCC(N2Cc3cc(OC4CCCC4N4CC(c5ccc6cccnc6c5)C4)ccc3C2=O)C(=O)N1 (centres unmarked) [Compound 169-B, 3-(1-oxo-5-((2-(3-(quinolin-7-yl)azetidin-1-yl)cyclopentyl)oxy)isoindolin-2-yl)piperidine-2,6-dione] | > 30 | > 30 | 0.046 | 56.3 | 0.013 | 
O=C1CCC(N2Cc3cc(O[C@@H]4CCCC[C@@H]4N4CC(c5ncc(C(F)(F)F)cn5)C4)ccc3C2=O)C(=O)N1 (mixture of isomers) [Compound 186-B, Rac-3-(1-oxo-5-(((cis)-2-(3-(5-(trifluoromethyl)pyrimidin-2-yl)azetidin-1-yl)cyclohexyl)oxy)isoindolin-2-yl)piperidine-2,6-dione] | > 30 | > 30 | 0.005 | 79.7 | 0.006 | 
